Where two headings read alike, the source gives them in different places.
What was measured:
MCF7 cells = assay: Quantitative nanoLC-MS/MS (TMT) of ADMA-containing peptides, CARM1 KO vs parental; format: cell-based, human; design: Fold change KO/WT: scale not given here
MCF7 CARM1 KO cells = assay: Quantitative MS of ADMA-containing peptides in MCF7 CARM1 KO cells expressing CARM1 28-608 or CARM1 140-608, and in CARM1 KO; format: cell-based, human
[1] = MCF7, CARM1 knockout vs wild type, n = 3 each
[2] = ratio on log2 scale, mean of 3 replicates
[3] = MCF7, CARM1 KO vs WT, three biological replicates each
[4] = CARM1 140-608 vs WT, mean of 3 replicates, log2
[5] = KO vs WT, mean of 3 replicates, log2
[6] = ADMA-containing peptide, CARM1 knockout (KO) vs wild type (WT) MCF7 cells, 6-plex TMT experiment #1, three biological replicates each, sheet "MCF7"
[7] = CARM1 140-608 versus WT, mean of three replicates (log2)
[8] = KO versus WT, mean of three replicates (log2)
[9] = MCF7 CARM1 knockout vs wild type, 3 biological replicates each, values are on log2 scale
[10] = difference of log2 means, CARM1 140-608 vs WT
[11] = difference of log2 means, KO vs WT
[12] = ADMA-containing peptide, MCF7, CARM1 knockout (KO1-3) vs wild type (WT1-3), TMT 6-plex experiment #1
[13] = log2 scale ratio, mean of n = 3
[14] = MCF7, CARM1 KO (KO1-KO3) vs wild type (WT1-WT3)
[15] = CARM1 140-608 vs WT, mean of 3 replicates (log2 scale)
[16] = KO vs WT, mean of 3 replicates (log2 scale)
[17] = CARM1 KO vs wild type MCF7 cells, 3 biological replicates each
[18] = CARM1 140-608 versus WT, difference of mean log2 values
[19] = CARM1 KO versus WT, difference of mean log2 values

AQPFAQPPGPWPLSSPGPrLVFNR
Fold change KO/WT (MCF7 cells; [1]): -4.7261
CARM1 140-608/WT (MCF7 CARM1 KO cells; [2]): -2.181
KO/WT (MCF7 CARM1 KO cells; [2]): -4.994

INPLPGGrNFSGTASTSLLGPPPGLLTPPVATELSQNAR
Fold change KO/WT (MCF7 cells; [3]): -2.627
CARM1 140-608/WT (MCF7 CARM1 KO cells; [4]): -1.005
KO/WT (MCF7 CARM1 KO cells; [5]): -2.627

LAMDFGGAGAAQQGLTDSCQSGGVPTAVQNLAPrAAVAAAAPrAVAPYK
Fold change KO/WT (MCF7 cells; [6]): -4.352
CARM1 140-608/WT (MCF7 CARM1 KO cells; [7]): -1.57
KO/WT (MCF7 CARM1 KO cells; [8]): -4.352

TLLrGGMSLrGQNLLrGGR
Fold change KO/WT (MCF7 cells; [3]): 0.06328

AFSSrSYTSGPGSrISSSSFSR
Fold change KO/WT (MCF7 cells; [9]): -1.022
CARM1 140-608/WT (MCF7 CARM1 KO cells; [10]): -1.259
KO/WT (MCF7 CARM1 KO cells; [11]): -1.022

MrPQPYGGTNPYSQQQGPPSGPQQGHGYPGQPYGSQTPQrYPMTMQGR
Fold change KO/WT (MCF7 cells; [3]): -3.351

QLrMQLQQR
Fold change KO/WT (MCF7 cells; [6]): -2.307

TPTATTSGIrATLTPTVLAPR
Fold change KO/WT (MCF7 cells; [12]): -1.669
CARM1 140-608/WT (MCF7 CARM1 KO cells; [13]): 0.4696
KO/WT (MCF7 CARM1 KO cells; [13]): -2.089

YRPYDGAASAYAQNYrYPEPERPSSR
Fold change KO/WT (MCF7 cells; [14]): -0.7141
CARM1 140-608/WT (MCF7 CARM1 KO cells; [15]): -1.157
KO/WT (MCF7 CARM1 KO cells; [16]): -0.7141

INPGLEYrQHLLLR
Fold change KO/WT (MCF7 cells; [9]): -1.551

WrYNKPLPPTPDLPQPHLPPISAPGSSR
Fold change KO/WT (MCF7 cells; [3]): -1.565
CARM1 140-608/WT (MCF7 CARM1 KO cells; [4]): -1.118
KO/WT (MCF7 CARM1 KO cells; [5]): -1.565

EVVrYLGGSGGAGGR
Fold change KO/WT (MCF7 cells; [14]): 0.2966
CARM1 140-608/WT (MCF7 CARM1 KO cells; [15]): -0.0149
KO/WT (MCF7 CARM1 KO cells; [16]): 0.2966

LAQDPYrLGHDPYR
Fold change KO/WT (MCF7 cells; [12]): -0.6293
CARM1 140-608/WT (MCF7 CARM1 KO cells): -0.7785
KO/WT (MCF7 CARM1 KO cells): -0.6293

QAAPQMLQQQPPrLISVQTMQR
Fold change KO/WT (MCF7 cells; [17]): -1.292
CARM1 140-608/WT (MCF7 CARM1 KO cells; [18]): -0.6208
KO/WT (MCF7 CARM1 KO cells; [19]): -1.292

AGGAASGGGGNSWDLPGSHVrLPGR
Fold change KO/WT (MCF7 cells; [14]): -0.8314
CARM1 140-608/WT (MCF7 CARM1 KO cells; [15]): -0.7799
KO/WT (MCF7 CARM1 KO cells; [16]): -0.9676

ErLALAAGPALrPDMSYAER
Fold change KO/WT (MCF7 cells; [3]): -2.368
CARM1 140-608/WT (MCF7 CARM1 KO cells; [4]): -1.6609
KO/WT (MCF7 CARM1 KO cells; [5]): -2.368

FPAGArYAGAGGLER
Fold change KO/WT (MCF7 cells; [3]): -0.6954
CARM1 140-608/WT (MCF7 CARM1 KO cells; [4]): -0.8137
KO/WT (MCF7 CARM1 KO cells; [5]): -1.235

GPPPFPGVPLMSTPMGGPVPPPIrYGPPPQLCGPFGPrPLPPPFGPGMrPPLGLREFAPGVPPGrR
Fold change KO/WT (MCF7 cells; [6]): -2.997
CARM1 140-608/WT (MCF7 CARM1 KO cells; [10]): -1.1204
KO/WT (MCF7 CARM1 KO cells; [11]): -2.997

MGTPVPrPPQDMGQIGVRTPLGPrVAAPVGPVGPTPTVLPMGAPVPrPR
Fold change KO/WT (MCF7 cells; [14]): -2.512
CARM1 140-608/WT (MCF7 CARM1 KO cells; [15]): -3.81
KO/WT (MCF7 CARM1 KO cells; [16]): -4.903

FFHMPrFQHQAPrQLFYK
Fold change KO/WT (MCF7 cells; [17]): -1.814

NELIArYIK
Fold change KO/WT (MCF7 cells; [12]): 0.1085
CARM1 140-608/WT (MCF7 CARM1 KO cells; [13]): -0.332
KO/WT (MCF7 CARM1 KO cells; [13]): -0.02143

GPrFEGNRPDGPrPrYEGHPAEGTK
Fold change KO/WT (MCF7 cells; [17]): -2.637
CARM1 140-608/WT (MCF7 CARM1 KO cells; [18]): -1.638
KO/WT (MCF7 CARM1 KO cells; [19]): -2.637

GSQDSPAVPHPGPLQHWQPENVNQAFTrPPPPYPGNIrSPVAPPLGPrYAVFPK
Fold change KO/WT (MCF7 cells; [9]): -2.234
CARM1 140-608/WT (MCF7 CARM1 KO cells; [10]): -1.013
KO/WT (MCF7 CARM1 KO cells; [11]): -2.722

LEPPLTPrCPLDFAPQTLSFPYAR
Fold change KO/WT (MCF7 cells; [3]): -5.801
CARM1 140-608/WT (MCF7 CARM1 KO cells; [4]): -2.973
KO/WT (MCF7 CARM1 KO cells; [5]): -5.801

SPGVFRPEQDPVPrMPFEK
Fold change KO/WT (MCF7 cells; [14]): -2.083
CARM1 140-608/WT (MCF7 CARM1 KO cells; [15]): -0.5664
KO/WT (MCF7 CARM1 KO cells; [16]): -2.083

FEGQHNQLGGNLrFEGPHGQPGVGIrFEGPLVQQGGGMrFEGPSVPGGGLR
Fold change KO/WT (MCF7 cells; [6]): -1.477
CARM1 140-608/WT (MCF7 CARM1 KO cells; [7]): 0.6048
KO/WT (MCF7 CARM1 KO cells; [8]): -1.668

SYGLGSEQrSQAPArYSLQSANASSLSSGQLK
Fold change KO/WT (MCF7 cells; [3]): -5.372
CARM1 140-608/WT (MCF7 CARM1 KO cells; [4]): -3.897
KO/WT (MCF7 CARM1 KO cells; [5]): -5.372

MQLQQrLQGQQFLNQSrQALELK
Fold change KO/WT (MCF7 cells; [6]): -3.454

LYrYSPQSFLPDSTIQK
Fold change KO/WT (MCF7 cells; [9]): -2.857
CARM1 140-608/WT (MCF7 CARM1 KO cells; mean, CARM1 140-608 versus WT (log2 scale)): -2.17
KO/WT (MCF7 CARM1 KO cells; mean, CARM1 KO versus WT (log2 scale)): -2.857

EELLrHQLLEKR
Fold change KO/WT (MCF7 cells; [3]): -2.786

GArLPGPVSSAR
Fold change KO/WT (MCF7 cells; [3]): -2.095
CARM1 140-608/WT (MCF7 CARM1 KO cells; [4]): -1.788
KO/WT (MCF7 CARM1 KO cells; [5]): -2.095

SPYTTTrYGSPINTFTVrPGTR
Fold change KO/WT (MCF7 cells; [3]): -3.428
CARM1 140-608/WT (MCF7 CARM1 KO cells; [4]): -2.642
KO/WT (MCF7 CARM1 KO cells; [5]): -5.424

TNRPGISTTDrGFPrArYR
Fold change KO/WT (MCF7 cells; [3]): -0.1094
CARM1 140-608/WT (MCF7 CARM1 KO cells; [4]): -0.4847
KO/WT (MCF7 CARM1 KO cells; [5]): -0.1094

VREELLrHQLLEK
Fold change KO/WT (MCF7 cells; [3]): -4.282
CARM1 140-608/WT (MCF7 CARM1 KO cells; [4]): -2.55
KO/WT (MCF7 CARM1 KO cells; [5]): -4.282

GPSGGYrGSGGFQrGGGrGAYGTGYFGQGR
Fold change KO/WT (MCF7 cells; [1]): 0.2112

GSGTGIYSNAAPPPVTYQGNLYrPLLrGQAQIPK
Fold change KO/WT (MCF7 cells; [17]): -4.659

FLQPrLAPNQPPPPLIrPALAAPRHSARPGPQPPPTLIGTPLEPPAPSL
Fold change KO/WT (MCF7 cells; [14]): -2.908

MGTPVPRPPQDMGQIGVrTPLGPR
CARM1 140-608/WT (MCF7 CARM1 KO cells; [15]): -1.0135
KO/WT (MCF7 CARM1 KO cells; [16]): -2.444

DLYANTVLSGGSTMYPGIADr
Fold change KO/WT (MCF7 cells; [3]): 0.2012

GAEAANVTGPDGVPVEGSrYAADR
Fold change KO/WT (MCF7 cells; [17]): -1.299

LLGQRPGPYDrPIGGrGGYYGAGrGSMYDR
Fold change KO/WT (MCF7 cells; [9]): -0.2245

QGSIGLYTQNQPLPAGGPrVDPYrPVRLPMQK
Fold change KO/WT (MCF7 cells; [6]): -2.102

FEGSPGLrFEGSPGGLrFEGPGGQPVGGLrFEGHR
Fold change KO/WT (MCF7 cells; [6]): -0.8785

EHGAAASErLQLGTPPPLLAArLVPPR
CARM1 140-608/WT (MCF7 CARM1 KO cells; [7]): -0.1041
KO/WT (MCF7 CARM1 KO cells; [8]): -0.4942

QVTITGSAASISLAQYLINAr
Fold change KO/WT (MCF7 cells; [6]): -0.8472

SSGSPYGGGYGSGGGSGGYGSrRF
Fold change KO/WT (MCF7 cells; [1]): -0.5008

From article PMC5458078, “Global mapping of CARM1 substrates defines enzyme specificity and substrate recognition” (Nature Communications, 2017)
